# Assay results taken from patent US12371463B2, “Methods and compositions for treatment of antibiotic-resistant bacterial infections” (University of Pittsburgh—Of the Commonwealth System of …, priority 2021, dated 2025).
# Ends that are not written are not given here.
# What was measured:
# [1] = system: wild-type P. aeruginosa PA14; assay: Experimental evolution with extended subinhibitory exposure, population survival; format: cell-based
# Method: In the third experiment, 5 planktonic populations of the non-hypermutant laboratorial strain P. aeruginosa PA14 were propagated under subinhibitory concentrations of WLBU2 (SEQ ID NO: 1) for 10 days. The populations that survived the treatment with 1×MIC of WLBU2 (SEQ ID NO: 1) were propagated for 2 days.
# (§1) The planktonic propagations were serially passaged through 50 uL into 5 mL of M9+(dilution factor 100) which corresponds to approximately 6.66 generations per day. For the biofilm populations, a polystyrene bead (Polysciences, Inc., Warrington, PA) was transferred to fresh media containing 3 sterile beads. Each bead was rinsed in phosphate buffered saline (PBS) before the transfer to reduce the transfer planktonic cells. Each day, black and white marked beads were alternated, ensuring that the bacteria were growing on the bead for 24 hours, which corresponds to 6 to 7.5 generations/day.
# Five planktonic populations of wild-type P. aeruginosa PA14 was propagated for 10 days under subinhibitory concentrations of WLBU2 (SEQ ID NO: 1), followed by 2 days at inhibitory concentrations. It was estimated the probability that any given nucleotide would be mutated during this regime was 0.74, with mean mutations per site of 1.52. […] Different colony morphologies were also detected within each population at the end of the experiment. […]
# [2] = system: P. aeruginosa (PA14 mutS:T114P); assay: Experimental evolution with hypermutator ancestor, population survival; format: cell-based
# Text: In the second experiment, 5 planktonic populations and 5 biofilm populations under the same conditions described above, and a mutator strain of P. aeruginosa (PA14 mutS:T114P), obtained from Flynn et al. (“Evolution of Ecological Diversity in Biofilms of Pseudomonas aeruginosa by Altered Cyclic Diguanylate Signaling.” J. Bacteriol., 2016, 198:2608-2618). Additionally, 3 planktonic populations and 3 biofilm populations of the hypermutant strain in the absence of antibiotic (e.g., WLBU2 (SEQ ID NO: 1)) pressure were propagated. Hypermutant strains of bacteria, such as P. aeruginosa, can develop in patients, and may be characterized as having increased mutation rates, e.g., up to 1,000-fold, as compared to wild-type bacteria, such as P. aeruginosa (see, e.g., Maciá, Maria D et al. “Hypermutation is a key factor in development of multiple-antimicrobial resistance in Pseudomonas aeruginosa strains causing chronic lung infections.” Antimicrobial agents and chemotherapy vol. 49, 8 (2005): 3382-6).
# as §1
# Increasing mutation supply by using hypermutator strain promotes evolution resistance: A method to increase mutation supply during evolution experiments was to use an ancestral strain with a higher mutation rate. These mutator genotypes commonly evolve during chronic infections of P. aeruginosa and therefore relevant to antimicrobial resistance (AMR) evolution. […]
# [3] = system: ESKAPE (Enterococcus faecium, Staphylococcus aureus, Klebsiella pneumoniae, Acinetobacter baumannii, Pseudomonas aeruginosa and Enterobacter spp.) pathogens; details: in vitro and in vivo, even when protected by biofilms; cited from earlier work
# A. baumannii ATCC 17978 = assay: Experimental evolution in increasing antibiotic concentrations, population survival; format: cell-based
# Method: Experimental evolution: Three independent evolution experiments were conducted. The ancestor strains were propagated in a rich medium modified from M9 (“M9+”) containing 0.37 millmolar (mM) CaCl2), 8.7 mM MgSO4, 42.2 mM Na2HPO4, 22 mM KH2PO4, 21.7 mM NaCl, 18.7 mM NH4Cl and 0.2 grams per liter (g/L) glucose and supplemented with 20 milliliters per liter (mL/L) MEM essential amino acids (Gibco 11130051), 10 mL/L MEM nonessential amino acids (Gibco 11140050), and 10 mL each trace mineral solution A, B, and C (Corning 25021-3Cl).
# In the first experiment, a single clone of A. baumannii ATCC 17978 and P. aeruginosa PA14 were selected and propagated independently for 24 hours in M9^+ in the absence of antibiotics. Each population was then sub-cultured into 10 replicate populations. Ten of the populations (5 planktonic and 5 biofilm) were propagated every 24 hours in increasing concentrations of WLBU2 (SEQ ID NO: 1) starting at 0.5× the minimum inhibitory concentration (MIC). The WLBU2 (SEQ ID NO: 1) was doubled after 72 hours until no population survived the treatment. As a control, the same number of strains were propagated (both planktonically and in biofilm) in the absence of antibiotics (e.g., WLBU2 (SEQ ID NO: 1)). Ten populations (5 planktonic and 5 biofilm) were propagated in increasing convention of the cationic peptide polymyxin B. […]
# (§2) For identifying mechanisms of resistance to WLBU2 (SEQ ID NO: 1), laboratory strains of A. baumannii ATCC 17978 and P. aeruginosa PA14 that had no prior exposure to WLBU2 (SEQ ID NO: 1) were propagated. […] Two factors that increase the likelihood of developing resistance were determined to be: i) the mutation supply determined by population size and the mutation rate and ii) the strength of selection imposed by the antibiotic. […] In Table 2, the mean mutations per nucleotide and the cumulative probability of a mutation per nucleotide knowing the mutation rate was calculated using the length of the chromosome, the number of divisions/days, and the length of the exposure before facing inhibitory concentrations of antibiotic (WLBU2 (SEQ ID NO: 1)). […]
# P. aeruginosa PA14 = assay: Experimental evolution in increasing WLBU2 concentrations (previously used protocol), population survival; format: cell-based
# Method: Experimental evolution: Three independent evolution experiments were conducted. The ancestor strains were propagated in a rich medium modified from M9 (“M9+”) containing 0.37 millmolar (mM) CaCl2), 8.7 mM MgSO4, 42.2 mM Na2HPO4, 22 mM KH2PO4, 21.7 mM NaCl, 18.7 mM NH4Cl and 0.2 grams per liter (g/L) glucose and supplemented with 20 milliliters per liter (mL/L) MEM essential amino acids (Gibco 11130051), 10 mL/L MEM nonessential amino acids (Gibco 11140050), and 10 mL each trace mineral solution A, B, and C (Corning 25021-3Cl). […]
# as §2
# [4] = system: P. aeruginosa PA14 resistant clones (Sm, Wr, Sc); assay: Aggregation assay of resistant clones; format: cell-based; details: presence (4 μg/ml) versus absence of WLBU2, settled 24 hours at 4° C.
# Method: To determine the aggregation ability of the 4 clones selected in the subinhibitory experiment, two replicates (R1 and R2) of each clone and the ancestral strain were grown in 5 mL of M9^+ for 24 hours at 37 degrees Celsius (° C.) in a roller drum at 200 revolutions per minute (RPM). After 24 hours, the whole culture of each clone was transferred to a 13 mm glass tube, and the tubes were allowed to settle over 24 hours at 4° C. without shaking. Replicate 1 (R1) of each clone was vortexed for 30 seconds and the optical density at 600 nanometers (OD600) was measured. From R2, 200 μl of the upper fraction was carefully taken without vortexing and the OD600 was measured. The aggregation percentage was estimated as […]. This experiment was performed with five replicates both in the absence and presence (4 μg/ml) of WLBU2 (SEQ ID NO: 1).
# [5] = system: P. aeruginosa and S. aureus biofilms; details: cited from earlier work
# [6] = system: P. aeruginosa PA14 mutS mutator strain and populations evolved from it; assay: MIC by broth microdilution (CLSI), mutator ancestor and mutator-derived evolved populations; format: cell-based; details: FIG. 3A, mutS-derived populations and clones from WT ancestor, p<0.05 one-way ANOVA
# Method: Phenotypic characterization: antimicrobial susceptibility and aggregation assay: The MIC to WLBU2 (SEQ ID NO: 1) and polymyxin B of the whole populations and 4 clones were determined by broth microdilution according to the Clinical and Laboratory Standards Instituted guidelines (CLSI 2019), in which each bacterial sample was tested in 2-fold increasing concentrations of each antibiotic. WLBU2 (SEQ ID NO: 1) was provided by Peptilogics (Peptilogics, Pittsburgh, PA) and polymyxin B was provided by Alfa Aesar (Alfa Aesar, Wardhill, Mass.). The experiments were performed with three replicates of the antibiotics.
# [7] = five mutator populations per lifestyle
# [8] = planktonic and biofilm, 3 days at 0.5x MIC before the MIC
substance,measurement,setting,value
RRWVRRVRRVWRRVVRVVRRWVRR [WLBU2],Populations that survived entire experiment (%),"[1]; extended subinhibitory exposure, strain PA14, 10 days subinhibitory then 2 days inhibitory",40%
same,populations that survived the prolonged subinhibitory treatment,"[1]; five planktonic populations, 10 days subinhibitory then 2 days inhibitory",two
same,biofilm populations that survived the treatment,[2]; [7],three
same,planktonic populations that survived the treatment,[2]; [7],Two
same,Populations that survived entire experiment (%),"[2]; hypermutator ancestor PA14 mutS: T114P, 3 days before inhibitory concentrations",50%
same,effectiveness against ESKAPE pathogens,[3],highly effective
same,populations that survived exposure of the MIC,A. baumannii ATCC 17978; [8],no populations
same,populations that survived exposure of the MIC,P. aeruginosa PA14; [8],no populations
same,Populations that survived entire experiment (%),"P. aeruginosa PA14; previously used protocol, strain PA14, 3 days before inhibitory concentrations",0%
same,aggregation of Sm colonies relative to WT,[4],only clustered more in the presence of the peptide
same,activity against biofilms,[5],high activity
same,resistance level (MIC) of evolved populations versus WT,[6],significantly exceeded WT resistance
polymyxin B,biofilm populations that survived in 4-times the MIC,"A. baumannii ATCC 17978; biofilm lifestyle, increasing concentrations over 12 days",four out of the five
same,planktonic populations that survived in 4-times the MIC,"A. baumannii ATCC 17978; planktonic lifestyle, 5 populations, increasing concentrations over 12 days",all
